Laboratory results taken from patent EP0349681A1, “Methods for treating hydrocarbon recovery operations and industrial waters” (PETROLITE CORPORATION, priority 1988, dated 1990).

Assays:
[1] = CO2 brine sparge test for sweet corrosive systems; conditions: 50 ppm active component, 24 hour test, 3.5 hours precorrosion, by weight loss
Procedure: The C02 brine sparge test is a reliable, quick test to screen compounds as corrosion inhibitors in "sweet" corrosive systems. A laboratory brine solution is sparged with stirring with 99.9% grade C02 for about one hour before immersing cleaned and weighed corrosion coupons. A M-1010 Pair@ meter was used to monitor the corrosion rate of each test cell. After one to two hours the corrosion rate reached a "steady state", but a precorrosion period of 3.5 hours was used for consistency before the test inhibitor was added. The precorroding period in the […] brine solution is very important. This provides a precor- roded test surface thereby minimizing surface preparation variations and also provides at least a minimal corrosion product layer without inhibitor in it against which the test inhibitor must work. This step is important, because in the equipment, the inhibitor is only rarely used from day one and then it is used on rusted steel and not freshly sand-blasted surfaces.
The inhibitors were injected below the brine surface at 50 ppm based on the active component. The 24 hour test period was monitored with a M-1010 PAIR meter as a "back-up", but the corrosion rates and percent protection were determined by weight loss measurements.

[2] = system: Aerobes; experiment: standard laboratory biocide screening, mixed culture; type: cell-based; conditions: 24 hours exposure, Standard Plate Count, Difco Plate Count Agar, 35° C, read-out: Aerobes (% killed)
Procedure: (§1) The compound of Example 4 was tested for efficacy using a standard laboratory screening procedure. The compounds were tested against a mixed culture of aerobic and anaerobic bacteria, including sulfate reducers. The test medium consisted of aged artificial sea water with 0.1 gms/liter of nutrient broth added. The medium was purged with nitrogen to remove oxygen and inoculated with 10 mis/liter of a mixed culture of aerobic and anaerobic bacteria obtained from oilfield waters. Aliquots (50 ml) were dispensed into sterile, nitrogen-filled serum vials. Concentrations of the test compounds were prepared by adding the appropriate amount of a 5% solution of the compound to 50 mls of test medium. After 24 hours, exposure levels of aerobic, anaerobic and sulfate reducing bacteria were enumerated.

[3] = system: Anaerobes; experiment: as above; type: cell-based; conditions: 800 ppm, 24 hours exposure, extinction dilution in Difco Fluid Thioglycollate broth, 35° C
Procedure: as §1

[4] = system: Sulfate Reducers; experiment: as above; type: cell-based; conditions: 800 ppm, 24 hours exposure, extinction dilution in modified Sulfate API broth, 35° C
Procedure: as §1

SMILES | Percent Protect [1] | other results
CCCCN(CCCC)C(=S)S [Example 1] | 92 | –
S=C(S)NCCNC(=S)S [Example 2] | 85 | –
S=C(S)NCCCN1CCN(CCCNC(=S)S)CC1 [Example 3] | 96 | –
S=C(S)NCCCCC(CCCNC(=S)S)CNC(=S)S (centres unmarked) [Example 4] | 99 | killing at 800 ppm [2]: 99%; Surviving Bacteria/ml Anaerobes [3]: 10 mL⁻¹; Surviving Bacteria/ml Sulfate Reducers [4]: 10 mL⁻¹
S=C(S)NCCN(CCN(CCN(CCNC(=S)S)C(=S)S)C(=S)S)C(=S)S [Example 5] | 97 | –
S=C(S)NCCCCCCN(CCCCCCNC(=S)S)C(=S)S [Example 6] | 96 | –
S=C(S)NCCN(CCNC(=S)S)C(=S)S [Example 7] | 92 | –
CCCCCCCCN(CCCNC(=S)S)C(=S)S [Example 8] | 96 | –
